Assay [1] addresses T1, ΔF508-CFTR (Homo sapiens, UniProt P13569, DEL508-508).
T1 construct: expressed in transfected cells; host or cells: Fischer rat thyroid (FRT) epithelial cells, stably transfected
The experiment in a line: Short-circuit current potentiator assay in ΔF508-CFTR expressing FRT cells after low-temperature rescue. Type of assay: cell-based. To be noted: 27° C. for 24 h prior to measurement, in the presence of forskolin; read-out: Apparent EC50 for potentiator activity as measured by short-circuit current. As for the experimental part: Short-circuit current measurements. ΔF508-CFTR-expressing FRT cells were cultured on Snapwell inserts for 7-9 days. For corrector testing, test compounds were incubated with FRT cells for 18-24 h at 37° C. prior to measurements. For potentiator testing, the FRT cells were incubated for 18-24 h at 27° C. prior to measurements. The basolateral solution contained 130 mM NaCl, 2.7 mM KCl, 1.5 mM KH2PO4, 1 mM CaCl2, 0.5 mM MgCl2, 10 mM glucose, and 10 mM Na-HEPES (pH 7.3). In the apical bathing solution, 65 mM NaCl was replaced by Na gluconate, and CaCl2 was increased to 2 mM. Solutions were bubbled with air and maintained at 37° C. […]
Short-circuit current measurements were performed to further characterize Compound 22 potentiator activity in which apical membrane chloride current was measured in ΔF508-CFTR expressing FRT cells, after low-temperature rescue, in response to Compound 22 additions. […]
Short-circuit current was measured in an electrophysiology assay to verify corrector activity. Apical membrane chloride current was measured in ΔF508-CFTR expressing FRT cells after basolateral membrane permeabilization and in the presence of a transepithelial chloride gradient. […] To assay potentiator activity apical membrane chloride current was measured after low-temperature rescue, in response to CP-3 addition. […]

Assay [2] deals with T1, ΔF508-CFTR. Nature of the assay: CFTR immunoblot of ΔF508-CFTR expressing FRT cells. Type of assay: cell-based. The conditions noted are these: 24 h at 37° C. How it is done: CFTR Immunoblot. DF508-CFTR expressing FRT cells grown on 6-well plates were treated with Corr-4a ([…]), Compound 22 […] or negative control at 37° C. for 24 h. After treatment, cells were washed with PBS and lysed in 20 mM Hepes (pH 7), 150 mM NaCl, 1 mM EGTA and 1% Igepal containing Complete Protease Inhibitor Cocktail (Roche). After pre-clearing, lysates were subjected to SDS-PAGE and analyzed by immunoblot. Proteins were immunodetected using a mouse monoclonal anti-CFTR antibody (M3A7, Millipore) followed by HRP-conjugated anti-mouse IgG, and visualized by chemiluminescence (ECL Plus, Amersham).
The action of Compound 22 as corrector of defective ΔF508-CFTR cellular processing was verified by CFTR immunoblot analysis (FIG. 4C). Wildtype CFTR was detected as a strong band at 170 kDa (band C), corresponding to complex glycosylated CFTR. […] Band B, which corresponds to core-glycosylated ΔF508-CFTR, was also seen.
Background: In western blotting, separated proteins are transferred to a membrane and probed.

T1 sequence (P13569 with tags, fused parts or gaps DEL508-508): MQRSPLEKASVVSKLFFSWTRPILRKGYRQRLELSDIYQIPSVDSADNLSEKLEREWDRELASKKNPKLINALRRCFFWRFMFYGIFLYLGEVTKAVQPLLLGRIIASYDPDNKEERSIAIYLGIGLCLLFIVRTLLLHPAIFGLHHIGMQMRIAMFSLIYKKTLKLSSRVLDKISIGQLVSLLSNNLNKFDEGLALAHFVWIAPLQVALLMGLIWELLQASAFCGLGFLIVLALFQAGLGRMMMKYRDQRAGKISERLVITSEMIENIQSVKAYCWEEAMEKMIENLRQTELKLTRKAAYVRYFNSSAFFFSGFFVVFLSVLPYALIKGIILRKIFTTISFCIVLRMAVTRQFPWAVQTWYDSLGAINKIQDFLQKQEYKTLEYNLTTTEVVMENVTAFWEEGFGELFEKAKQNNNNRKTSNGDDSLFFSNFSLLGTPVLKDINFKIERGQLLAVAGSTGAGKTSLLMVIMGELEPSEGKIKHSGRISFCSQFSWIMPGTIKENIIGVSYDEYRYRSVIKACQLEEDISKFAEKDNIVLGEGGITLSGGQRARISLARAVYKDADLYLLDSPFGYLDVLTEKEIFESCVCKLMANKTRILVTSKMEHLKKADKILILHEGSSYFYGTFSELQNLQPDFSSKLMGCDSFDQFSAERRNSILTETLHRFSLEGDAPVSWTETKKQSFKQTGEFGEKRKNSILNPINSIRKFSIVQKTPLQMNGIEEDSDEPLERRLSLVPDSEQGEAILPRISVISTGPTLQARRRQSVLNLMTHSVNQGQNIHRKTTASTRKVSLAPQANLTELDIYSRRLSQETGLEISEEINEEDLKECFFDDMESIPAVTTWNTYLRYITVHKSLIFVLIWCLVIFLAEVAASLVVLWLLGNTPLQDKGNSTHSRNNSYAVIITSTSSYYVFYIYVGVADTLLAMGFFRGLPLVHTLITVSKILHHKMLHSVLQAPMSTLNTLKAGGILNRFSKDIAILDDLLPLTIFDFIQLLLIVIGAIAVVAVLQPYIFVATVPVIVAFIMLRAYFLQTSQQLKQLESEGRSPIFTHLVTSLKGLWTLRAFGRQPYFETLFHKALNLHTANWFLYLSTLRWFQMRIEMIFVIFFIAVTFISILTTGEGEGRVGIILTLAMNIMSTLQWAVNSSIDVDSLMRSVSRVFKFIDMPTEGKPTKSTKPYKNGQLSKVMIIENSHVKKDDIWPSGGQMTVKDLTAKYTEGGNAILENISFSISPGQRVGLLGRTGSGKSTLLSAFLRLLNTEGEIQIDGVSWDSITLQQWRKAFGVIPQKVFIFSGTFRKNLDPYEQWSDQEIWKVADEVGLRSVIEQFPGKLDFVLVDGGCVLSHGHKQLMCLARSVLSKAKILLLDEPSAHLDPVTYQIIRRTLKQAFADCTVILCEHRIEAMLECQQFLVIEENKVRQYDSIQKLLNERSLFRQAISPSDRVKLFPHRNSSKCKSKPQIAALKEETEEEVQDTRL

What is called EC50 is the concentration at which the effect is half-maximal. Take `COc1cccc(C(=O)NCCNc2nc3cc(C)cc(C)c3cc2C#N)c1` [Compound 22, N-(2-((3-Cyano-5,7-dimethylquinolin-2-yl)amino)ethyl)-3-methoxybenzamide]: the EC50 on ΔF508-CFTR [1] was around 10 µM. For the same compound, the “complex glycosylated CFTR (band C) in immunoblot” value at ΔF508-CFTR [2] is listed as “band C was visualized”.

Source of the values: patent publication US9073863B2, “Cyanoquinoline compounds having activity in correcting mutant-CFTR processing and increasing ion transport and uses thereof” (The Regents of the University of California, priority 2011, dated 2015).
